Test results as given in ChEMBL document CHEMBL1139808, “Structure-activity relationship study of novel NR2B-selective antagonists with arylamides to avoid reactive metabolites formation” (Bioorg Med Chem Lett, 2007).

What was measured:
[1] = Metabolic stability assessed as half life in human liver microsomes; type: ADME, Microsome
Rattus norvegicus = assay: Effect on haloperidol catalepsy in po dosed rat assessed as […]; type: functional; details: read-out: MED
[2] = target: Glutamate receptor ionotropic, NMDA 2B (Rattus norvegicus, UniProt P35439+Q00960); assay: Displacement of [3H]racemic CP-101606 from rat NR2B receptor in P2 membrane; type: cell membranes
Chain of Glutamate receptor ionotropic, NMDA 2B (Q00960 whole entry, one chain of several): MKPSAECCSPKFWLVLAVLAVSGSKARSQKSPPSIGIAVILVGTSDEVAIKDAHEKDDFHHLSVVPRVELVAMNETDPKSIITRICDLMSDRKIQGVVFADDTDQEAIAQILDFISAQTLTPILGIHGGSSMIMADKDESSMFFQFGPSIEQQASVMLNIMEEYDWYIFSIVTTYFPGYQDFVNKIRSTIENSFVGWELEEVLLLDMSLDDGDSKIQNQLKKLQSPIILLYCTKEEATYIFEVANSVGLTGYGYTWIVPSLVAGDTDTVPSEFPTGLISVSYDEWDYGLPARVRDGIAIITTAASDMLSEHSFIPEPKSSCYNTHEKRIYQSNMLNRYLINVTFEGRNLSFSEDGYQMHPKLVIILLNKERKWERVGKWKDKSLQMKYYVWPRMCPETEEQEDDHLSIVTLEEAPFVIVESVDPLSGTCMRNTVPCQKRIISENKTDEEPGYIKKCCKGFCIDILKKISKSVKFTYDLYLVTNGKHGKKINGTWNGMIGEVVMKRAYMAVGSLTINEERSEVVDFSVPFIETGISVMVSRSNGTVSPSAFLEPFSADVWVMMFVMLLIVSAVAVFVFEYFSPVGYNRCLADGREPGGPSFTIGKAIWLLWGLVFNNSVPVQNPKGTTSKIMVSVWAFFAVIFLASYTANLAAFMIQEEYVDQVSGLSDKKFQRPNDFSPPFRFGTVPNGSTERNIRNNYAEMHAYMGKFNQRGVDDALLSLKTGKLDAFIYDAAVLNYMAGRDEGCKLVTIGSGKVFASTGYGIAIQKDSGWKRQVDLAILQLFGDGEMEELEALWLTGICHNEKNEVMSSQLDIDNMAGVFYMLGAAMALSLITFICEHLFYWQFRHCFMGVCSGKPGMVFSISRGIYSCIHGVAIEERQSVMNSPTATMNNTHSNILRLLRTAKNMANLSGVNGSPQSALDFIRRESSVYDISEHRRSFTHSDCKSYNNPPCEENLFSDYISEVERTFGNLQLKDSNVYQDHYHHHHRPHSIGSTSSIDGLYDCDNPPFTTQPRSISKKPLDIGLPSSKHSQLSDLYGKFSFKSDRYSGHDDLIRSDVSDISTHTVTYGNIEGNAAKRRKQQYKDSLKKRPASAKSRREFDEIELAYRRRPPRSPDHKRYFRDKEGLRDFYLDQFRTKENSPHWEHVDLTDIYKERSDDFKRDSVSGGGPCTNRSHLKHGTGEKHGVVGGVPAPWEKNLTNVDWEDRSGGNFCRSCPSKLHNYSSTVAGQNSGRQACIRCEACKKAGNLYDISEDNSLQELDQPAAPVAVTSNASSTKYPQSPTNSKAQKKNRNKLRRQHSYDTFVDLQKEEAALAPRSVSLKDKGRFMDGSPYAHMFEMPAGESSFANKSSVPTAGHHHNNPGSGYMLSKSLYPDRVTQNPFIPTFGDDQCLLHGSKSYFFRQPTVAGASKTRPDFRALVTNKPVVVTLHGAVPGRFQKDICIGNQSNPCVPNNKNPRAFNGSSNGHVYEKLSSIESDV

[3] = target: Voltage-gated inwardly rectifying potassium channel KCNH2 (Homo sapiens, UniProt Q12809); assay: Inhibition of hERG; type: toxicity
Chain of Voltage-gated inwardly rectifying potassium channel KCNH2 (Q12809 whole entry): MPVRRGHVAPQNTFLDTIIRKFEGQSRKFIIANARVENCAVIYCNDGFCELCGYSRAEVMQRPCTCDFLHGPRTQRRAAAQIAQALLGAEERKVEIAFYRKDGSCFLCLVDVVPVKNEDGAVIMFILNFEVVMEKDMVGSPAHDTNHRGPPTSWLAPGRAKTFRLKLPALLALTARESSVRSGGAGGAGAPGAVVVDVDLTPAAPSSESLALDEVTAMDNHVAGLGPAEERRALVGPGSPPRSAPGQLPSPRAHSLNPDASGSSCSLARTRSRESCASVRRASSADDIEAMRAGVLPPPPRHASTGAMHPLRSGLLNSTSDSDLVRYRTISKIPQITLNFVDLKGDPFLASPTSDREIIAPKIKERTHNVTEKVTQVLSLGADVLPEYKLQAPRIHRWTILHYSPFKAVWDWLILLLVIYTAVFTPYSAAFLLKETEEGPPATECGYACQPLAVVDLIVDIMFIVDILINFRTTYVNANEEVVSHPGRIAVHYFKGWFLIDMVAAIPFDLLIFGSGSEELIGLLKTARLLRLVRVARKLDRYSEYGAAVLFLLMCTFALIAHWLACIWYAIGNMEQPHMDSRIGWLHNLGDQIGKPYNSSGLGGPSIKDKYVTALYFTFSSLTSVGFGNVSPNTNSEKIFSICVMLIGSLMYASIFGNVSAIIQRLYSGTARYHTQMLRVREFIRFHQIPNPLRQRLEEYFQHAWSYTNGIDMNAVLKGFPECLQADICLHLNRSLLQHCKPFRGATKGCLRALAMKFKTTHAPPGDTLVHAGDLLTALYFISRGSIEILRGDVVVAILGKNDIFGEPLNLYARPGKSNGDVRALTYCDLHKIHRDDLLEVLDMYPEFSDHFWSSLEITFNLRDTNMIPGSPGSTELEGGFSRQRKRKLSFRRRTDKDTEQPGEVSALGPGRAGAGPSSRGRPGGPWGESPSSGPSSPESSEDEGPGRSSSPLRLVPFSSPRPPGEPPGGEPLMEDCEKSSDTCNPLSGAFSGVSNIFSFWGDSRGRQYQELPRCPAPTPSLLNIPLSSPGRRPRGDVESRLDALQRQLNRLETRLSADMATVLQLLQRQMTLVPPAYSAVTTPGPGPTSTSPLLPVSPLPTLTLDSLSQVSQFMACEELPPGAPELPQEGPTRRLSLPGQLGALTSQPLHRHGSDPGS

Mus musculus = organism: Mus musculus; assay: Analgesic activity in PSL mouse model assessed as latency to paw withdrawal; type: functional; details: read-out: MED
[4] = Bioavailability in rat; type: ADME, organism-based; details: in vivo
hERG = hERG (Homo sapiens, UniProt Q12809); assay: Inhibition of hERG current at 10 uM; type: toxicity
Chain of hERG (Q12809 whole entry): as above

Structure (SMILES) | Ki [2] [µM] | also measured
O=C(NC[C@H]1CC[C@@H](COc2ccccc2)CC1)c1ccc(O)cc1 | 0.0068 | half-life [1]: 2.3 min; minimal effective dose (Rattus norvegicus): 3 mg/kg
O=C1CCc2cc(C(=O)NC[C@H]3CC[C@@H](CCOc4ccccc4)CC3)ccc2N1 | 0.0059 | –
O=C(NC[C@H]1CC[C@@H](CCOc2ccccc2)CC1)c1cc(F)c(O)c(F)c1 | 0.0085 | –
O=C(NC[C@H]1CC[C@@H](COc2ccccc2)CC1)c1cc(F)c(O)c(F)c1 | 0.012 | –
Nc1n[nH]cc1C(=O)NC[C@H]1CC[C@@H](CCOc2ccccc2)CC1 | 0.0037 | half-life [1]: 59 min
O=C(NC[C@H]1CC[C@@H](COc2ccccc2)CC1)c1cc[nH]c1 | 0.084 | –
O=C1CCc2cc(C(=O)NC[C@H]3CC[C@@H](COc4ccccc4)CC3)ccc2N1 | 0.018 | –
O=C(NC[C@H]1CC[C@@H](COc2ccccc2)CC1)c1cn[nH]c1 | 0.014 | half-life [1]: 44 min
O=C(NCc1cccc(OCCc2ccccc2)c1)c1ccc(O)cc1 | 0.0056 | –
Cc1n[nH]c(C)c1C(=O)NC[C@H]1CC[C@@H](CCOc2ccccc2)CC1 | > 0.1 | –
O=C(NC[C@H]1CC[C@@H](COc2ccccc2)CC1)c1ccn[nH]1 | > 0.1 | –
O=C1C=CC(C(=O)NC[C@H]2CC[C@@H](CCOc3ccccc3)CC2)NN1 (stereo partly drawn) | 0.011 | –
O=C(NCc1cccc(C(=O)NCc2ccccc2)c1)c1ccc(O)cc1 | 0.015 | IC50 [3]: > 30 µM
O=C(NC[C@H]1CC[C@@H](CCOc2ccccc2)CC1)c1cn[nH]c1 | 0.0042 | minimal effective dose (Mus musculus): 3 mg/kg; bioavailability [4]: 43%; inhibition at 10 µM (hERG): 36%; IC50 [3]: > 30 µM
O=C(NC[C@H]1CC[C@@H](CCOc2ccccc2)CC1)c1cc[nH]c1 | 0.0068 | –
Cc1n[nH]c(C)c1C(=O)NC[C@H]1CC[C@@H](COc2ccccc2)CC1 | > 0.1 | –
O=C(NC[C@H]1CC[C@@H](CCOc2ccccc2)CC1)c1ccc2[nH]ncc2c1 | 0.015 | –
O=C(NC[C@H]1CC[C@@H](CCOc2ccccc2)CC1)c1ccn[nH]1 | 0.0089 | half-life [1]: 36 min
O=C1C=CC(C(=O)NC[C@H]2CC[C@@H](COc3ccccc3)CC2)NN1 (stereo partly drawn) | > 0.1 | –
O=C(NC[C@H]1CC[C@@H](CCOc2ccccc2)CC1)c1ccc(O)cc1 | 0.02 | –
O=C(NC[C@H]1CC[C@@H](COc2ccccc2)CC1)c1ccc(=O)[nH]n1 | > 0.1 | –
Nc1[nH]ncc1C(=O)NC[C@H]1CC[C@@H](COc2ccccc2)CC1 | > 0.1 | –
O=C(NC[C@H]1CC[C@@H](CCOc2ccccc2)CC1)c1ccc(=O)[nH]n1 | 0.0056 | –
